In patent US20100317647A1 (priority 2009, published 2010):

What follows are compounds tested against human Cat S (Homo sapiens, UniProt P25774) (assay: Cathepsin enzyme inhibition assay (fluorogenic peptide substrate cleavage)). Details: human Cat S 1 nM; substrate Z-Val-Val-Arg-AMC 20 μM; pH 6.5; fluorescence over 20 minutes.
Assay type: biochemical
How it was run: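 IC50 values derived from fluorescence increase (ex 360 nm, em 465 nm) monitored for 20 minutes after substrate addition. Enzyme held at 1 nM with 20 μM Z-Val-Val-Arg-AMC, in pH 6.5 potassium phosphate buffer containing DTT, EDTA and Triton X-100.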

Chain of human Cat S (P25774 115-331): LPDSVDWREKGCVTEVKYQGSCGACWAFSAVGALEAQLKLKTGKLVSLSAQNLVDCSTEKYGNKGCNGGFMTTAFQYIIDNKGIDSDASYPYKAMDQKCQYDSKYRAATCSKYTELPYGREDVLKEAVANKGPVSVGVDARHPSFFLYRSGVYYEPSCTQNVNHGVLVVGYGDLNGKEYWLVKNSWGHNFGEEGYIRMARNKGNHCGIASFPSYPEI

Compound | IC50 [nM]
CO[C@@H]1C[C@H](S(=O)(=O)c2ccc(N3CCN(C(C)C)CC3)cc2C(F)(F)F)C[C@H]1C(=O)NC1(C#N)CC1 (racemic) [Example 177, (1R,2R,4R) and (1S,2S,4S)-4-[4-(4-Isopropyl-piperazin-1-yl)-2-trifluoromethyl-benzenesulfonyl]-2-methoxy-cyclopentanecarboxylic acid (1-cyano-cyclopropyl)-amide] | 0.923
N#CCNC(=O)[C@@H]1C[C@@H](S(=O)(=O)c2ccc(F)cc2Cl)C[C@H]1COc1ccc(F)cc1 (single isomer, unassigned) [Example 143] | 0.523
N#CC1(NC(=O)[C@@H]2C[C@@H](S(=O)(=O)c3ccccc3)C[C@H]2C(=O)N2CCCC2)CC1 [Example 23, (1R,2R,4R)-4-Benzenesulfonyl-2-(pyrrolidine-1-carbonyl)-cyclopentanecarboxylic acid (1-cyano-cyclopropyl)-amide] | 1.5
N#CC1(NC(=O)[C@@H]2C[C@@H](S(=O)(=O)c3ccccc3)C[C@H]2C(=O)N2CCC(O)CC2)CC1 [Example 13, (1R,2R,4R)-4-Benzenesulfonyl-2-(4-hydroxy-piperidine-1-carbonyl)-cyclopentanecarboxylic acid (1-cyano-cyclopropyl)-amide] | 1
CO[C@@H]1C[C@H](S(=O)(=O)c2ccc(N3CC(F)(F)C3)cc2C(F)(F)F)C[C@H]1C(=O)NC1(C#N)CC1 (racemic) [Example 206, (1R,2R,4R) and (1S,2S,4S)-4-[4-(3,3-Difluoro-azetidin-1-yl)-2-trifluoromethyl-benzenesulfonyl]-2-methoxy-cyclopentanecarboxylic acid (1-cyano-cyclopropyl)-amide] | 1.4
CO[C@@H]1C[C@H](S(=O)(=O)c2ccc(-c3cncc(F)c3)cc2C(F)(F)F)C[C@H]1C(=O)NC1(C#N)CC1 (racemic) [Example 84, (1R,2R,4R) and (1S,2S,4S)-4-[4-(5-Fluoro-pyridin-3-yl)-2-trifluoromethyl-benzenesulfonyl]-2-methoxy-cyclopentanecarboxylic acid (1-cyano-cyclopropyl)-amide] | 0.7
CC(C)N1CCN(c2ccc(S(=O)(=O)[C@H]3C[C@@H](OC4CCCC4)[C@H](C(=O)NC4(C#N)CC4)C3)c(C(F)(F)F)c2)CC1 (racemic) [Example 229, (1R,2R,4R) and (1S,2S,4S)-2-Cyclopentyloxy-4-[4-(4-isopropyl-piperazin-1-yl)-2-trifluoromethyl-benzenesulfonyl]-cyclopentanecarboxylic acid (1-cyano-cyclopropyl)-amide] | 0.007
CCN1CCN(c2ccc(S(=O)(=O)[C@H]3CC[C@H](C(=O)NC4(C#N)CC4)C3)c(Cl)c2)CC1 (racemic) [Example 97, (1S,3S) and (1R,3R)-3-[2-chloro-4-(4-ethyl-piperazin-1-yl)-benzenesulfonyl]-cyclopentanecarboxylic acid (1-cyano-cyclopropyl)-amide] | 157
CC(C)O[C@@H]1C[C@H](S(=O)(=O)c2ccc(-c3cnn(C)c3)cc2C(F)(F)F)C[C@H]1C(=O)NC1(C#N)CC1 (racemic) [Example 142, (1R,2R,4R) and (1S,2S,4S)-2-Isopropoxy-4-[4-(1-methyl-1H-pyrazol-4-yl)-2-trifluoromethyl-benzenesulfonyl]-cyclopentanecarboxylic acid (1-cyano-cyclopropyl)-amide] | 0.2
CO[C@@H]1C[C@H](S(=O)(=O)c2ccc(-n3cccn3)cc2Cl)C[C@H]1C(=O)NC1(C#N)CC1 (racemic) [Example 59, (1R,2R,4R) and (1S,2S,4S)-4-(2-Chloro-4-pyrazol-1-yl-benzenesulfonyl)-2-methoxy-cyclopentanecarboxylic acid (1-cyano-cyclopropyl)-amide] | 4
COCCOc1ccc(S(=O)(=O)[C@@H]2C[C@@H](C(=O)NC3(C#N)CC3)[C@H](C(=O)N3CC(F)(F)C3)C2)c(Cl)c1 [Example 168, (1R,2R,4R)-4-[2-Chloro-4-(2-methoxy-ethoxy)-benzenesulfonyl]-2-(3,3-difluoro-azetidine-1-carbonyl)-cyclopentanecarboxylic acid (1-cyano-cyclopropyl)-amide] | 1.27
N#CC1(NC(=O)[C@@H]2C[C@@H](S(=O)(=O)c3ccccn3)C[C@H]2C(=O)N2CCC(F)(F)C2)CC1 [Example 227, (1R,2R,4R)-2-(3,3-Difluoro-pyrrolidine-1-carbonyl)-4-(pyridine-2-sulfonyl)-cyclopentanecarboxylic acid (1-cyano-cyclopropyl)-amide] | 0.555
N#CC1(NC(=O)[C@@H]2C[C@@H](S(=O)(=O)c3ccc(OCC(F)(F)F)cc3Cl)C[C@H]2C(=O)N2CC(F)(F)C2)CC1 [Example 134, (1R,2R,4R)-4-[2-Chloro-4-(2,2,2-trifluoro-ethoxy)-benzenesulfonyl]-2-(3,3-difluoro-azetidine-1-carbonyl)-cyclopentanecarboxylic acid (1-cyano-cyclopropyl)-amide] | 1.4
N#CC1(NC(=O)[C@@H]2C[C@@H](S(=O)(=O)c3ccccc3Cl)C[C@H]2OCc2ccc(Cl)cc2F)CC1 (racemic) [Example 252, (1R,2R,4R) and (1S,2S,4S)-4-(2-Chloro-benzenesulfonyl)-2-(4-chloro-2-fluoro-benzyloxy)-cyclopentanecarboxylic acid (1-cyano-cyclopropyl)-amide] | 4.99
Cc1ccc(S(=O)(=O)[C@@H]2C[C@@H](C(=O)NCC#N)[C@H](C(=O)N3CCOCC3)C2)cc1 [Example 4, (1R,2R,4R)-2-(Morpholine-4-carbonyl)-4-(toluene-4-sulfonyl)-cyclopentanecarboxylic acid cyanomethyl-amide] | 0.6
CC1CCN(C(=O)[C@@H]2C[C@H](S(=O)(=O)c3ccccc3)C[C@H]2C(=O)NC2(C#N)CC2)CC1 [Example 19, (1R,2R,4R)-4-Benzenesulfonyl-2-(4-methyl-piperidine-1-carbonyl)-cyclopentanecarboxylic acid (1-cyano-cyclopropyl)-amide] | 0.5
N#CC1(NC(=O)[C@@H]2C[C@@H](S(=O)(=O)c3ccccc3Cl)C[C@H]2OCc2ccc(Cl)cc2)CC1 (racemic) [Example 222, (1R,2R,4R) and (1S,2S,4S)-4-(2-Chloro-benzenesulfonyl)-2-(4-chloro-benzyloxy)-cyclopentanecarboxylic acid (1-cyano-cyclopropyl)-amide] | 5.8
CO[C@@H]1C[C@H](S(=O)(=O)c2ccc(-c3cnccn3)cc2C(F)(F)F)C[C@H]1C(=O)NC1(C#N)CC1 (racemic) [Example 111, (1R,2R,4R) and (1S,2S,4S)-2-Methoxy-4-(4-pyrazin-2-yl-2-trifluoromethyl-benzenesulfonyl)-cyclopentanecarboxylic acid (1-cyano-cyclopropyl)-amide] | 0.4
N#CC1(NC(=O)[C@H]2C[C@@H](S(=O)(=O)c3ccccc3Cl)C[C@@H]2O)CC1 (racemic) [Example 52, (1S,2S,4R) and (1R,2R,4S)-4-(2-Chloro-benzenesulfonyl)-2-hydroxy-cyclopentanecarboxylic acid (1-cyano-cyclopropyl)-amide] | 11700
N#CCNC(=O)[C@@H]1C[C@@H](S(=O)(=O)c2ccccc2C(F)(F)F)C[C@H]1C(=O)N1CCOCC1 [Example 37, (1R,2R,4R)-2-(Morpholine-4-carbonyl)-4-(2-trifluoromethyl-benzenesulfonyl)-cyclopentanecarboxylic acid cyanomethyl-amide] | 0.9
